Results as given in publication PMC5728534 (PLoS ONE, 2017).
Numbering of substitutions follows the chain as printed. Entries after “also recorded” stand apart in the source; their conditions may differ.

Experiments:
OCT1 = settings: literature data; cited from earlier work
[1] = molecular target: T1, OCT1*1D (Pro341Leu/Met408Val) (Homo sapiens, UniProt O15245, L160F/M408V/P341L); settings: 1 and 10 μM ranitidine, 2 min
T1 sequence (O15245 1-554 L160F/P341L/M408V): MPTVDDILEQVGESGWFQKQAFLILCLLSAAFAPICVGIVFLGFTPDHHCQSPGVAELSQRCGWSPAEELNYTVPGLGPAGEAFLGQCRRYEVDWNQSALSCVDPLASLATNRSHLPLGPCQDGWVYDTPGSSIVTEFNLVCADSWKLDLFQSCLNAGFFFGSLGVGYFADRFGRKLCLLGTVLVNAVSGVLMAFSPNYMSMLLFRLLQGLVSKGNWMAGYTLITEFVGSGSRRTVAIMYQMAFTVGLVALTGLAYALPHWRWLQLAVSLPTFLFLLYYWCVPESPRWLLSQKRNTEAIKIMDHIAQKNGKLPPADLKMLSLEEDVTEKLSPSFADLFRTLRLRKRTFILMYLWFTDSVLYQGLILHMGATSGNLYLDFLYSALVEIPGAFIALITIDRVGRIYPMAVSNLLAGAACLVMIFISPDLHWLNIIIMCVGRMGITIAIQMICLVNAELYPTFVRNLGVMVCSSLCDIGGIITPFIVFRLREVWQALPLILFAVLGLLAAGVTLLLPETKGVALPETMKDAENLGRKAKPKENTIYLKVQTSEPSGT
Excerpt: (§1) HEK293 or CHO cells overexpressing the human OCT1 alleles *1A (characterized by the amino acid substitution Met408Val), *1B, *1C (Phe160Leu), *1D (Pro341Leu/Met408Val), *2 (Met420del), *3 (Arg61Cys), *4 (Gly401Ser), *5 (Gly465Arg/Met420del), *6 (Cys88Arg/Met420del), *7 (Ser14Phe), *8A (Arg488Met), *8B (Arg488Met/Met408Val), *9 (Pro117Leu), *10 (Ser189Leu), *11 (Ile449Thr), *12 (Ser29Leu), or *13 (Thr245Met), the human OCT2 reference and variant alleles (Ala270Ser), human OCT3, and the control cells (transfected with the empty pcDNA5 vector) were generated by targeted chromosomal integration using the Flp-In™ System (Life Technologies, Darmstadt, Germany).
(§2) Six hundred thousand HEK293 or CHO cells were plated per well in 12-well plates (pre-coated with poly-D-lysine) and were grown for 48 hours to reach confluence. Cells were kept at 37°C and 5% CO2 in DMEM (HEK293) or RPMI (CHO), supplemented with 10% FCS, 100 U/ml penicillin, and 100 μg/ml streptomycin. Uptake experiments were performed at pH 7.4 using HBSS supplemented with 10 mM HEPES buffer (herein referred to as HBSS+). […]
(§3) For all transport measurements, the intracellular amount of substrate was normalized to the total amount of protein of the sample as measured using the bicinchoninic acid assay [49].
(§4) For quantification of intracellular substrates, the cell debris were removed by centrifugation at 17,000 x g for 10 min. […]

[2] = molecular target: T2, OCT1*6 (Cys88Arg/Met420del) (Homo sapiens, UniProt O15245, C88R/DEL420-420/L160F); test: Ranitidine uptake in HEK293 cells overexpressing OCT1*6; format: in vitro ADME; settings: 1 μM and 10 μM ranitidine, 2 min
T2 construct: expressed in transfected cells; host or cells: HEK293 T-REx (Flp-In)
T2 sequence (O15245 with tags, fused parts or gaps C88R/L160F/DEL420-420): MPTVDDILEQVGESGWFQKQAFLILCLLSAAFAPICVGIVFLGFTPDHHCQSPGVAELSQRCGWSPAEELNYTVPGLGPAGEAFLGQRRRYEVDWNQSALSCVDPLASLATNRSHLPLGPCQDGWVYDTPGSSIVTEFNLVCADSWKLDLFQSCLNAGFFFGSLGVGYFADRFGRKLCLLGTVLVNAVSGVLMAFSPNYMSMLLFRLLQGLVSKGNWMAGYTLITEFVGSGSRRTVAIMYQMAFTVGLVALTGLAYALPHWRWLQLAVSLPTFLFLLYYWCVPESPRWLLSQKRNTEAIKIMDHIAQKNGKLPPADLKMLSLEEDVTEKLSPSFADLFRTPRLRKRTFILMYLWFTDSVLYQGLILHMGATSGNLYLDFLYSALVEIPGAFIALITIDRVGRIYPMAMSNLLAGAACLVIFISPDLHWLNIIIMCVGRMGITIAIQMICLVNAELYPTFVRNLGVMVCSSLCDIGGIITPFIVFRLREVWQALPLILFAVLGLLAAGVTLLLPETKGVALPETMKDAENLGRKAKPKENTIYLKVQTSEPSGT
Excerpt: as §1, §2, §3, §4

[3] = parameters: method as in ref 56 = [56]; 56 Pharma ® A. Fachinformation Ranitidin 150–1 A Pharma ® , Ranitidin 300–1 A Pharma ® : Rote Liste ®; 2013 [updated June 2013; cited 2016 21.10.2016].; settings: cited from earlier work
OCT1*13 (Thr245Met) = molecular target: T3, OCT1*13 (Thr245Met) (Homo sapiens, UniProt O15245, L160F/T245M); test: Ranitidine uptake in HEK293 cells overexpressing OCT1*13; format: in vitro ADME; settings: 1 μM and 10 μM ranitidine, 2 min
T3 construct: expressed in transfected cells; host or cells: HEK293 T-REx (Flp-In)
T3 sequence (O15245 1-554 L160F/T245M): T1 sequence (O15245 1-554 L160F/P341L/M408V) with T245M, L341P, V408M
Excerpt: as §1, §2, §3, §4

CNC(=C[N+](=O)[O-])NCCSCc1ccc(CN(C)C)o1 [ranitidine, Ranitidine]
Km (OCT1): 70 ± 9 µM | uptake of ranitidine compared to the reference allele [1]: no significant difference | ranitidine transport activity [2]: completely lacked ranitidine uptake; also recorded: complete lack of ranitidine transport activity | dosages exceeding the single dose not associated with a higher prevalence of adverse reactions [3]: more than 20 fold | ranitidine transport activity (OCT1*13 (Thr245Met)): completely lacked ranitidine uptake; also recorded: complete lack of ranitidine transport activity
